Assay results: US10301261B2, “Substituted indoles as modulators of ROR-gamma” (Vitae Pharmaceuticals, LLC, priority 2015, dated 2019)

Columns and labels:
[1] = molecular target: recombinant RORγ Ligand Binding Domain (LBD) protein (Homo sapiens (Human), UniProt P51449); experiment: Radio-Ligand RORγ Binding Assay (Assay 1); conditions: radio-ligand 25-hydroxy [26,27-3H]-cholesterol competition
Description: Radio-Ligand RORγ Binding Assay (Assay 1)
Compounds described herein were tested for ability to bind to RORγ in a cell-free competition assay with commercially available radio-ligand (RL), 25-hydroxy [26,27-^3H]-cholesterol (PerkinElmer, Cat. # NET674250UC), for a ligand binding site on a recombinant RORγ Ligand Binding Domain (LBD) protein expressed as a 6×His-Glutathione-S-Transferase (GST) fusion. […] The plate was shaken at 700 rpm for 20 min and incubated for 10 min at rt, after which 40 μL of poly-Lys YSi SPA beads (PerkinElmer, Cat. # RPNQ0010) were added to achieve 50 μg of the beads per well. The plate was incubated on an orbital shaker for 20 min and then for 10 min without agitation at rt. SPA signal for tritium beta radiation was registered on PerkinElmer Microbeta plate reader. […] The percent inhibition vs. concentration data were fit into a four-parameter model, and IC50 values were calculated from the fit as the concentrations corresponding to the inflection points on the dose-response curves. […]

[2] = molecular target: full-length RORγt in Jurkat cells (Homo sapiens (Human), UniProt P51449); experiment: RORγt 5×RORE Assay in Jurkat Cells (Assay 2); format: cell-based; conditions: RORγt 5×RORE Nanoluc reporter
Description: [formula] RORγt 5×RORE Assay in Jurkat Cells (Assay 2)
Compounds described herein were tested for RORγ inverse agonist activity in a cell-based, transcriptional activity assay. […] (Promega, Cat. # N1021) using KpnI and HindIII restriction sites. […] Tested compounds were added to the cells in the same media (final concentration of DMSO was 0.1% (v/v)), and the plates were incubated at 37° C./5% CO2 for 16-18 hrs. Luciferase activity in the conditioned supernatants was determined with NanoGlo® assay reagents (Promega, Cat.# N1130).

Sequence of full-length RORγt in Jurkat cells (P51449 other isoform, or with tags, fused parts or gaps): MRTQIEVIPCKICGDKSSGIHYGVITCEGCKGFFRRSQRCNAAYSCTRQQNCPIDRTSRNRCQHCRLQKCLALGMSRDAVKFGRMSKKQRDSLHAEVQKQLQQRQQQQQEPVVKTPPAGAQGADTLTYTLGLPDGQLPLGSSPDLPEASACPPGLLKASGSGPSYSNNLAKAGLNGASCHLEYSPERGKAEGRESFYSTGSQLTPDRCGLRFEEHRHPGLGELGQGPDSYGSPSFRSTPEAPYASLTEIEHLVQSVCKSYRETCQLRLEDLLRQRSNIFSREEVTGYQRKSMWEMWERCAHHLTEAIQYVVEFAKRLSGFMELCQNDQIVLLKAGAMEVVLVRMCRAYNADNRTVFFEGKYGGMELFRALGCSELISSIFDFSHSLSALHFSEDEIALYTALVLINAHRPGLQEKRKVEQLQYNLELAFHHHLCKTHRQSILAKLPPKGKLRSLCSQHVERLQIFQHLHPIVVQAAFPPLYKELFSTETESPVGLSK
Sequence of recombinant RORγ Ligand Binding Domain (LBD) protein (P51449 269-508): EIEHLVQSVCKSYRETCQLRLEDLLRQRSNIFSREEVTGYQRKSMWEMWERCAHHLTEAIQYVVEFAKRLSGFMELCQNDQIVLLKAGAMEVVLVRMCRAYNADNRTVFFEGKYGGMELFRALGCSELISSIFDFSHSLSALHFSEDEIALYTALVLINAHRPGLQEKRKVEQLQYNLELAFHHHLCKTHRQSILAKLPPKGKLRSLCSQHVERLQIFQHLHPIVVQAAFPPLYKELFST

| Ki [1] | IC50 [2] | Molecule |
| --- | --- | --- |
| < 100 nM | < 100 nM | CCS(=O)(=O)c1ccc([C@H](CO)NC(=O)c2ccc3c(c2)nc(COC2CCC(C(F)(F)F)CC2)n3C2CC2)cc1 (single isomer, unassigned) [BE-71.1] |
| < 100 nM | < 100 nM | CCS(=O)(=O)c1ccc([C@H](CO)NC(=O)c2ccc3c(c2)nc(CO[C@H]2CC[C@H](C(F)(F)F)CC2)n3C2CC2)cc1 (single isomer, unassigned) [BE-71.2] |
| < 100 nM | < 100 nM | CCS(=O)(=O)c1ccc([C@H](CO)NC(=O)c2ccc3c(c2)nc(O[C@H]2CC[C@H](C(F)(F)F)CC2)n3C2CC2)cc1 [BE-1, 1-cyclopropyl-N-((R)-1-(4-(ethylsulfonyl)phenyl)-2-hydroxyethyl)-2-(((1r,4R)-4-(trifluoromethyl)cyclohexyl)oxy)-1H-benzo[d]imidazole-5-carboxamide] |
| < 100 nM | < 100 nM | CCn1c(O[C@H]2CC[C@H](C(F)(F)F)CC2)nc2cc(C(=O)NCc3ccc(S(=O)(=O)CC)cc3)ccc21 [BE-2, 1-ethyl-N-(4-(ethylsulfonyl)benzyl)-2-(((1r,4r)-4-(trifluoromethyl)cyclohexyl)oxy)-1H-benzo[d]imidazole-5-carboxamide] |
| < 100 nM | 100 to 1000 nM | CCS(=O)(=O)c1ccc(CNC(=O)c2ccc3c(c2)nc(O[C@H]2CC[C@H](C(F)(F)F)CC2)n3CC(C)C)cc1 [BE-4.1, N-(4-(ethylsulfonyl)benzyl)-1-isobutyl-2-(((1r,4r)-4-(trifluoromethyl)cyclohexyl)oxy)-1H-benzo[d]imidazole-5-carboxamide] |
| < 100 nM | > 1000 nM | CCS(=O)(=O)c1ccc(CNC(=O)c2ccc3c(c2)nc(O[C@H]2CC[C@@H](C(F)(F)F)CC2)n3CC(C)C)cc1 [BE-4.2, N-(4-(ethylsulfonyl)benzyl)-1-isobutyl-2-(((1s,4s)-4-(trifluoromethyl)cyclohexyl)oxy)-1H-benzo[d]imidazole-5-carboxamide] |
| < 100 nM | < 100 nM | CCn1c(Oc2ccc(C(F)(F)F)cc2)nc2cc(C(=O)NCc3ccc(S(=O)(=O)CC)cc3)ccc21 [BE-5, 1-ethyl-N-(4-(ethylsulfonyl)benzyl)-2-(4-(trifluoromethyl)phenoxy)-1H-benzo[d]imidazole-5-carboxamide] |
| < 100 nM | < 100 nM | CCS(=O)(=O)c1ccc(CNC(=O)c2ccc3c(c2)nc(Oc2ccc(C(F)(F)F)cc2)n3C2CC2)cc1 [BE-6, 1-cyclopropyl-N-(4-(ethylsulfonyl)benzyl)-2-(4-(trifluoromethyl)phenoxy)-1H-benzo[d]imidazole-5-carboxamide] |
| < 100 nM | < 100 nM | CCS(=O)(=O)c1ccc([C@H](CO)NC(=O)c2ccc3c(c2)nc(Oc2ccc(C(F)(F)F)cc2)n3C2CC2)cc1 [BE-7, (R)-1-cyclopropyl-N-(1-(4-(ethylsulfonyl)phenyl)-2-hydroxyethyl)-2-(4-(trifluoromethyl)phenoxy)-1H-benzo[d]imidazole-5-carboxamide] |
| < 100 nM | < 100 nM | CCn1c(Oc2ccc(C(F)(F)F)cc2)nc2cc(C(=O)N[C@@H](CO)c3ccc(S(=O)(=O)CC)cc3)ccc21 [BE-8, (R)-1-ethyl-N-(1-(4-(ethylsulfonyl)phenyl)-2-hydroxyethyl)-2-(4-(trifluoromethyl)phenoxy)-1H-benzo[d]imidazole-5-carboxamide] |
| < 100 nM | < 100 nM | CCn1c(Oc2ccc(OC(F)(F)F)cc2)nc2cc(C(=O)N[C@@H](CO)c3ccc(S(=O)(=O)CC)cc3)ccc21 [BE-9, (R)-1-ethyl-N-(1-(4-(ethylsulfonyl)phenyl)-2-hydroxyethyl)-2-(4-(trifluoromethoxy)phenoxy)-1H-benzo[d]imidazole-5-carboxamide] |
| < 100 nM | < 100 nM | CCn1c(Oc2ccc(C(F)(F)F)cc2)nc2cc(C(=O)N[C@@H](CN)c3ccc(S(=O)(=O)CC)cc3)ccc21 [BE-11, (R)-N-(2-amino-1-(4-(ethylsulfonyl)phenyl)ethyl)-1-ethyl-2-(4-(trifluoromethyl)phenoxy)-1H-benzo[d]imidazole-5-carboxamide] |
| < 100 nM | > 1000 nM | CCn1c(OCC2CCC(F)(F)CC2)nc2cc(C(=O)N[C@@H](CO)c3ccc(S(=O)(=O)CC)cc3)ccc21 [BE-12, (R)-2-((4,4-difluorocyclohexyl)methoxy)-1-ethyl-N-(1-(4-(ethylsulfonyl)phenyl)-2-hydroxyethyl)-1H-benzo[d]imidazole-5-carboxamide] |
| < 100 nM | > 1000 nM | CCn1c(OCC2CC(F)(F)C2)nc2cc(C(=O)N[C@@H](CO)c3ccc(S(=O)(=O)CC)cc3)ccc21 [BE-13, (R)-2-((3,3-difluorocyclobutyl)methoxy)-1-ethyl-N-(1-(4-(ethylsulfonyl)phenyl)-2-hydroxyethyl)-1H-benzo[d]imidazole-5-carboxamide] |
| < 100 nM | < 100 nM | CCn1c(OCc2ccc(C(F)(F)F)cc2)nc2cc(C(=O)N[C@@H](CO)c3ccc(S(=O)(=O)CC)cc3)ccc21 [BE-14, (R)-1-ethyl-N-(1-(4-(ethylsulfonyl)phenyl)-2-hydroxyethyl)-2-((4-(trifluoromethyl)benzyl)oxy)-1H-benzo[d]imidazole-5-carboxamide] |
| < 100 nM | < 100 nM | CCS(=O)(=O)c1ccc([C@H](CO)NC(=O)c2ccc3c(c2)nc(OCc2ccc(C(F)(F)F)cc2)n3C2CC2)cc1 [BE-15, (R)-1-cyclopropyl-N-(1-(4-(ethylsulfonyl)phenyl)-2-hydroxyethyl)-2-((4-(trifluoromethyl)benzyl)oxy)-1H-benzo[d]imidazole-5-carboxamide] |
| < 100 nM | – | CCS(=O)(=O)c1ccc(CNC(=O)c2ccc3c(c2)nc(C(=O)C2CCC(C(F)(F)F)CC2)n3C2CC2)cc1 (centres unmarked) [BE-64, 1-cyclopropyl-N-(4-(ethylsulfonyl)benzyl)-2-(4-(trifluoromethyl)cyclohexane-1-carbonyl)-1H-benzo[d]imidazole-5-carboxamide] |
| < 100 nM | – | CCS(=O)(=O)c1ccc(CC(=O)Nc2ccc3c(c2)nc(Cc2ccc(C(F)(F)F)cc2)n3CC(C)C)cc1 [BE-68, 2-(4-(ethylsulfonyl)phenyl)-N-(1-isobutyl-2-(4-(trifluoromethyl)benzyl)-1H-benzo[d]imidazol-5-yl)acetamide] |
| < 100 nM | – | CCn1c(Cc2ccc(OC(F)F)cc2)cc2cc(C(=O)N[C@@H](CO)c3ccc(S(=O)(=O)CC)cn3)ccc21 [IN-6, (R)-2-(4-(difluoromethoxy)benzyl)-1-ethyl-N-(1-(5-(ethylsulfonyl)pyridin-2-yl)-2-hydroxyethyl)-1H-indole-5-carboxamide] |
| < 100 nM | – | CCn1c(Cc2cccc(OC(F)F)c2)cc2cc(C(=O)N[C@@H](CO)c3ccc(S(=O)(=O)CC)cn3)ccc21 [IN-7, (R)-2-(3-(difluoromethoxy)benzyl)-1-ethyl-N-(1-(5-(ethylsulfonyl)pyridin-2-yl)-2-hydroxyethyl)-1H-indole-5-carboxamide] |

| Molecule | Ki [1] | IC50 [2] |
| --- | --- | --- |
| 1-ethyl-N-(4-(ethylsulfonyl)benzyl)-2-(((1s,4s)-4-(trifluoromethyl)cyclohexyl)methyl)-1H-indole-5-carboxamide [IN-17.2] | < 100 nM | > 1000 nM |
| 1-ethyl-N-((5-(ethylsulfonyl)pyridin-2-yl)methyl)-2-(((1s,4s)-4-(trifluoromethyl)cyclohexyl)methyl)-1H-indole-5-carboxamide [IN-15.2] | < 100 nM | > 1000 nM |
| 1-ethyl-N-((R)-1-(4-(ethylsulfonyl)phenyl)-2-hydroxyethyl)-2-(((1s,4S)-4-(trifluoromethyl)cyclohexyl)methyl)-1H-indole-5-carboxamide [IN-16.2] | < 100 nM | > 1000 nM |
| CCS(=O)(=O)c1ccc(CNC(=O)c2cnc3c(c2)nc(C[C@H]2CC[C@H](C(F)(F)F)CC2)n3C2CC2)cc1 [AB-1.1, 3-cyclopropyl-N-(4-(ethylsulfonyl)benzyl)-2-(((1r,4r)-4-(trifluoromethyl)cyclohexyl)methyl)-3H-imidazo[4,5-b]pyridine-6-carboxamide] | < 100 nM | < 100 nM |
| CCS(=O)(=O)c1ccc(CNC(=O)c2cnc3c(c2)nc(C[C@H]2CC[C@@H](C(F)(F)F)CC2)n3C2CC2)cc1 [AB-1.2, 3-cyclopropyl-N-(4-(ethylsulfonyl)benzyl)-2-(((1s,4s)-4-(trifluoromethyl)cyclohexyl)methyl)-3H-imidazo[4,5-b]pyridine-6-carboxamide] | < 100 nM | > 1000 nM |
| CCS(=O)(=O)c1ccc(CNC(=O)c2cnc3c(c2)nc(Cc2ccc(C(F)(F)F)cc2)n3C2CC2)cc1 [AB-3, 3-cyclopropyl-N-(4-(ethylsulfonyl)benzyl)-2-(4-(trifluoromethyl)benzyl)-3H-imidazo[4,5-b]pyridine-6-carboxamide] | < 100 nM | < 100 nM |
| CCS(=O)(=O)c1ccc(CNC(=O)c2cnc3c(c2)cc(C[C@H]2CC[C@H](C(F)(F)F)CC2)n3C2CC2)cc1 [AI-1, 1-cyclopropyl-N-(4-(ethylsulfonyl)benzyl)-2-(((1r,4r)-4-(trifluoromethyl)cyclohexyl)methyl)-1H-pyrrolo[2,3-b]pyridine-5-carboxamide] | < 100 nM | < 100 nM |
